Common to all, as to test: In vitro cell proliferation, CellTiter-Glo, 5 days
Common to all, as to assay type: cell-based
What all share (details): free linker-drug (without antibody)
A general note: In ATP-based viability assays light output follows the ATP content of the culture.

Assay [1] concerns In vivo-derived resistant UACC-257X2.2 cells. Here is the method:
For resistance developed in vivo, NCr nude mice (Taconic, Hudson, N.Y.) were inoculated subcutaneously in the dorsal right flank with 5 million UACC-257X2.2 cells in HBSS with Matrigel. UACC-257X2.2 cells are derived from UACC-257 cells (National Cancer Institute) and optimized for growth in vivo as follows. UACC-257 cells were injected subcutaneously in the right flank of female NCr nude mice to induce tumor growth. One tumor was harvested and grown in vitro (referred to as UACC-257X1.2 cell line). The UACC-257X1.2 line was injected again subcutaneously in the right flank of female NCr nude mice to improve the growth of the cell line in vivo. A tumor from the second injection round was collected and again adapted for in vitro growth to generate UACC-257X2.2.
Ten mice inoculated with UACC-257X2.2 cells were dosed with 3 mg/kg hu5E9.v1-MC-vc-PAB-MMAE intravenously on day 0. […]
In vitro cell proliferation of the cell lines in the presence of the immunoconjugates was assessed. […] Five days later, cell survival was determined using CellTiter-Glo Luminescent Cell Viability Reagent (G7572, Promega Corporation, Madison, Wis.) using an EnVision 2101 Mutilabel Reader (Perkin-Elmer, Waltham, Mass.).

Assay [2] concerns Parental UACC-257X2.2 cells. Here is the method: (§1) In vitro cell proliferation of the cell lines in the presence of the immunoconjugates was assessed. Cells were plated at 1,500 cells per well in 50 μL of normal growth medium in 96-well clear-bottom plates. Twenty-four hours later, an additional 50 μL of culture medium with serial dilutions of immunoconjugates (ch5E9-vc-MMAE or control anti-gD-vc-MMAE) were added to triplicate wells. Five days later, cell survival was determined using CellTiter-Glo Luminescent Cell Viability Reagent (G7572, Promega Corporation, Madison, Wis.) using an EnVision 2101 Mutilabel Reader (Perkin-Elmer, Waltham, Mass.).

Assay [3] deals with In vitro-derived resistant UACC-257X2.2 cells. As to the method:
For resistance developed in vitro, UACC-257X2.2 cells were adapted to increasing concentrations of anti-ETBR-vc-MMAE in culture dishes over the course of two months.
as §1

Starred links: 1 amine or outer side, 2 acyl side, 3 side chain; linkers in the order of their positions; H or OH if unused. Non-standard residues stand in square brackets, D forms with d. Residues, ends and D or L forms follow the SMILES beside them. *: point of attachment. Dolaproine = CO[C@@H]([C@@H]1CCCN1)[C@@H](C)C(=O)O; Hexanoyl(6-maleimido) = O=C1C=CC(=O)N1CCCCCC(=O)*; Dil = CC[C@H](C)[C@H](NC)[C@@H](CC(=O)O)OC; PABC = O=C(OCc1ccc(N[*:1])cc1)[*:2]; X1 = C[C@@H](N*)[C@@H](O)c1ccccc1; Cit = NC(=O)NCCC[C@H](N)C(=O)O; NMeV = CN[C@H](C(=O)O)C(C)C

In the case of `CC[C@H](C)[C@@H]([C@@H](CC(=O)N1CCC[C@H]1[C@H](OC)[C@@H](C)C(=O)N[C@H](C)[C@@H](O)c1ccccc1)OC)N(C)C(=O)[C@@H](NC(=O)[C@H](C(C)C)N(C)C(=O)OCc1ccc(NC(=O)[C@H](CCCNC(N)=O)NC(=O)[C@@H](NC(=O)CCCCCN2C(=O)C=CC2=O)C(C)C)cc1)C(C)C` [free MC-vc-PAB-MMAE] ({Hexanoyl(6-maleimido)}-V[Cit][PABC][NMeV]V[Dil][Dolaproine]-X1), the results for the EC50 in assay [1], in assay [2] and in assay [3] were 0.77 nM, 0.28 nM and 3.5 nM, respectively.

These data come from patent US9464141B2, “Anti-ETBR antibodies and immunoconjugates” (Genentech, Inc., priority 2012, dated 2016).
